The test system of one assay is human melanocytes. The assay can be described thus: Melanogenesis in cultured primary human melanocytes. It counts as cell-based. Here is the method: Rapamycin (also called sirolimus) inhibits immune attack by inhibiting the response to interleukin-2 (IL-2) and blocking activation of T- and B-cells. Rapamycin binds to the cytosolic protein FK-binding protein 12 (FKBP12) and inhibits the mammalian target of rapamycin (mTOR) pathway by directly binding the mTOR Complex 1 (mTORC1). […] For example, FIG. 1 depicts a western blot of lysates from HL60 cells, a model system for studying human myeloid cell differentiation, which were treated with rapamycin for 24 hours. […] Additionally, FIG. 2 depicts human melanocytes that were treated with rapamycin (0.01 μM) for 96 hours.
(§1) In FIG. 5, Primary Human melanocytes were treated with each agent or the combination for 96 h. […] FIG. 7 depicts a Western blot for protein expression of survival signals in primary human melanocytes treated with FGF, stem cell factor (SCF), forskolin and alpha-MSH, as compared to untreated melanocytes. […] Designation of 1 indicates the darkening (repigmentation) of skin surrounding hair follicles.

For assay [1], the system named is primary human melanocytes. In words: Proliferation of primary human melanocytes. It counts as cell-based. The following applies: 10 ng/mL, 96 h, DMSO as untreated control (FIG. 3). Here is the method:
In some embodiments, the present invention is directed to a composition comprising a cosmeceutically acceptable carrier, rapamycin and growth factors such as fibroblast growth factor (FGF), Stem cell Factor (SCF) or Endothelins. […] In FIG. 3, treated Primary Human melanocytes were treated with bFGF (10 ng/mL) with DMSO as untreated control for 96 h. Growth Factors such as basic Fibroblast Growth Factor, Stem Cell Factor and Endothelins are important regulators of melanocyte differentiation, migration, proliferation and survival. Growth factors can therefore protect cells from destruction induced by immune cells. Furthermore, growth factors such as those described, can potentially increase migration of melanoblasts (melanocyte precursor cells) from peripheral regions of vitiligo patches or from hair follicles into the vitiligo lesion thus allowing repigmentation.
as §1

On to `N[C@@H](Cc1ccc(O)c(O)c1)C(=O)O` [L-dopa, L-DOPA], for which, in the assay with human melanocytes (FIG. 6), the “melanogenesis compared to untreated melanocytes” value is recorded as “increased melanogenesis”. In addition, the “melanogenesis in human melanocytes” value in the assay with human melanocytes (each agent alone, 96 h (FIG. 4)) is “melanogenesis increases”. On to `N[C@@H](Cc1ccc(O)cc1)C(=O)O` [L-Tyrosine], for which, in the assay with human melanocytes (96 hours (FIG. 10)), the “melanogenesis in cultured primary melanocytes” value is recorded as “increased melanogenesis”.

Regarding “bFGF: recombinant human basic fibroblast growth factor (FGF2)”, the “proliferation of primary human melanocytes” value in assay [1] was “increases proliferation”.
